The subject of data set [1] is CYP2D6 enzyme activity. Nature of the data set: 13C-dextromethorphan breath test. The data set is classed as in vivo, human.
Data set [2] can be described thus: Tamoxifen and metabolite steady state plasma concentrations. The following applies: for 3m or 6m steady state concentrations correlated with age: p-values > 0.11; for pharmacokinetics differ by CYP2D6 genotype: 3 and 6 month visits.

Take `COc1ccc2c(c1)[C@]13CCCC[C@@H]1[C@H](C2)N(C)CC3` [DM, Dextromethorphan]: in data set [1] (Spearman, p < 0.0001, n=77), the “correlation (r) of baseline DM-BT values with CYP2D6 genotype” value amounted to 0.55. Further, in data set [1] (Spearman, p < 0.001, n=55), the “correlation (r) of 6m DM-BT values with CYP2D6 genotype” value is reported as 0.55. Further, the “correlation (r) of 3m DM-BT values with CYP2D6 genotype” value in data set [1] (Spearman, p< 0.0001, n=60) came to 0.58.
With `CC/C(=C(\c1ccccc1)c1ccc(OCCN(C)C)cc1)c1ccccc1` [tamoxifen, Tamoxifen, reference compound], in data set [2], the “3m or 6m steady state concentrations correlated with age” value is “no evidence”.
Consider `CC/C(=C(\c1ccc(O)cc1)c1ccc(OCCNC)cc1)c1ccccc1` [Endx, endoxifen], for which, in data set [2] (Spearman, p < 0.0001, n=57), the “correlation (r) of CYP2D6 genotype with 3m Endx Css” value amounted to 0.47 and the “correlation (r) of CYP2D6 genotype with 3m Endx/NDMT ratio” value stood at 0.60. Further, in data set [2] (Spearman, p<0.0001, n=54), the “correlation (r) of CYP2D6 genotype with 6m Endx/NDMT ratio” value is on record as 0.61 and the “correlation (r) of CYP2D6 genotype with 6 month Endx Css” value is 0.56. Moreover, in data set [2] (comparison with ref 14), the “concentrations of endoxifen, fold lower than that of Lien et al” value is reported as approximately 8 fold. The concentration at 3 months in data set [2] (human, plasma, oral, 20 mg daily, Median Endx concentration (range), Endx Css, 3 months, CYP2D6 PM/PM, activity score 0, n=2) was determined as 5.5 nM. In addition, the concentration at 6 months in data set [2] (human, plasma, oral, 20 mg daily, Median Endx concentration (range), Endx Css, 6 months, CYP2D6 PM/PM, activity score 0, n=2) is 6.7 nM. For the same compound, the “3m or 6m steady state concentrations correlated with age” value in data set [2] is reported as “no evidence”.
Consider `Fc1ccc([C@@H]2CCNC[C@H]2COc2ccc3c(c2)OCO3)cc1` [paroxetine], for which the “baseline DOB30 values lower than at 3 and 6 month visits after paroxetine was discontinued” value in data set [1] (one patient who took paroxetine prior to the baseline visit) was more than 50%.
For the compound `CC/C(=C(\c1ccc(O)cc1)c1ccc(OCCN(C)C)cc1)c1ccccc1` [4HT, 4-hydroxytamoxifen], in data set [2], the “pharmacokinetics differ by CYP2D6 genotype” value was “Neither tamoxifen, NDMT, or 4HT pharmacokinetics were found to differ by CYP2D6 genotype” and the “3m or 6m steady state concentrations correlated with age” value is given as “no evidence”.
Consider `CC/C(=C(\c1ccccc1)c1ccc(OCCNC)cc1)c1ccccc1` [NDMT, N-desmethyltamoxifen], for which, in data set [2], the “pharmacokinetics differ by CYP2D6 genotype” value is reported as “Neither tamoxifen, NDMT, or 4HT pharmacokinetics were found to differ by CYP2D6 genotype” and the “3m or 6m steady state concentrations correlated with age” value is listed as “no evidence”.

Values taken from PMC4356640 (Pharmacogenetics and genomics, 2015).
